Source: US9351988B2, “Macrocyclic lactones and use thereof” (UNIVERSITE DE GENEVE, priority 2011, dated 2016)

Experiments:
[1] = test system: Human colon adenocarcinoma cell line (LS174T); test: BrdU incorporation proliferation assay in LS174T cells; assay type: cell-based; conditions: 48 h
Procedure: (§1) Human colon adenocarcinoma cell line (LS174T), human primary colon cancer cells (CC14) and primary metastatic cells (mCC11) were treated with Avermectin B1 (MicroSource Discovery systems, CT, USA), 5 μM. Control cells were treated with equivalent concentration of DMSO. 48 h after treatment, the percentage of BrdU incorporation was calculated for cells treated with Avermectin B1 as compared to control cells as follows: the number of BrdU positive cells over total number of cells expressed as percentage compared to control cells treated with DMSO only. Cells were cultivated in standard conditions (37° C., 5% CO2) in DMEM containing 10% Fetal Calf Serum.
The same assay as described in Example 1 was carried out on human colon adenocarcinoma cell line LS174T where cell samples were either treated with Abamectin (Sigma #31732) or Doramectin (Sigma #33993) at three different concentrations: 0.1, 1 and 5 μM. Control cells were treated with equivalent concentration of DMSO. 48 h after treatment, the percentage of BrdU incorporation was calculated for cells treated with each macrocyclic lactone as compared to control cells as described above.
(§2) The same assay as described in Example 1 was carried out on human primary colon cancer cells (CC14 and CC36) (TNM IV and III, respectively) and primary metastatic cells (mCC11) from the liver of the patient, on the human adenocarcinoma cell lines DLD1, LS174T, and SW180 and on human skin melanoma cell lines MeWo and SKMel2 where cell samples were treated with Ivermectin (Fabron Iberica S.A.U) or Stromectol™ (Merck & Co. Inc.) which is an oral pharmaceutical formulation of semisynthetic Ivermectin (mixture containing at least 90% 5-O-demethyl-22,23-dihydroavermectin A1a and less than 10% 5-O-demethyl-25-de(1-methylpropyl)-22,23-dihydro-25-(1-methylethyl)avermectin A1a, generally referred to as 22,23-dihydroavermectin B1a and B1b, or H2B1a and H2B1b) at different concentrations: 0.5, 1, 2.5, 5 and 10 μM (Ivermectin diluted in DMSO, Stromectol in Ethanol). Control cells were treated with equivalent concentrations of DMSO. 48 h after treatment the level of BrdU incorporation was calculated for cells treated with each macrocyclic lactone as compared to control cells as described above. IC50 values are calculated by interpolation from a dose response curve fitted using PRISM (Graphpad Software).

[2] = test system: human primary colon cancer cells (CC36); test: BrdU incorporation proliferation assay in CC36 cells; assay type: cell-based; conditions: 48 h
Procedure: as §1
The same assay as described in Example 1 was carried out on human primary colon cancer cells (CC14 and CC36) (TNM IV and III, respectively) and primary metastatic cells (mCC11) from the liver of the patient where cell samples were treated with Abamectin (Sigma #31732) at three different concentrations: 0.1, 1 and 5 μM. Control cells were treated with equivalent concentrations of DMSO. 48 h after treatment the level of BrdU incorporation was calculated for cells treated with each macrocyclic lactone as compared to control cells as described above. […]

[3] = test system: human skin melanoma cell line MeWo; test: BrdU incorporation proliferation assay in MeWo cells; assay type: cell-based; conditions: MeWo, 0.5, 1, 2.5, 5 and 10 μM, 48 h
Procedure: as §1, with “Serum. […]” for “Serum.”

[4] = test system: human skin melanoma cell line SKMel2; test: BrdU incorporation proliferation assay in SKMel2 cells; assay type: cell-based; conditions: SKMel2, 0.5, 1, 2.5, 5 and 10 μM, 48 h
Procedure: as §1, with “Serum. […]” for “Serum.”

[5] = test system: human adenocarcinoma cell line DLD1; test: BrdU incorporation proliferation assay in DLD1 cells; assay type: cell-based; conditions: DLD1, 0.5, 1, 2.5, 5 and 10 μM, 48 h
Procedure: as §1, with “Serum. […]” for “Serum.”

[6] = test system: human DLD1 CC cell xenografts; test: Mouse xenografts of human colon cancer (DLD1) cells; assay type: in vivo, nude NMRI mice; conditions: DLD1 xenografts in nude mice, 10 mg/kg; comparable to dnTCF4 (transgenic Wnt inhibition)
Procedure: Six- to eight-week-old female nude NMRI (Naval Medical Research Institute) mice each receive two injections of 10^5-10^6 human DLD1 CC cells on their backs as independent subcutaneous xenografts. As soon as the tumor is palpable (1-2 mm) (usually 7-10 days following xenograft), a range of concentrations of Ivermectin (Fabron Iberica S.A.U) or Abamectin (Sigma #31732) (0 (excipient only), 10, 50 and 100 mg/kg/day) is given by oral gavage combined with corn oil or is administered intra-peritoneally (IP) combined with 2-hydroxypropyl-β-cyclodextrin (Sigma, 45% solution) in a second set of experiments. Tumor size is periodically measured with a caliper. Mice are sacrificed before the tumors approach the legal size limit and the tumors are removed and analysed for proliferation (BrdU assay), apoptosis (Caspase3 assay, Varnat et al., 2009, EMBO Mol. Med., 1, 338-351) and invasion (Varnat et al., 2010, above). Control mice are treated with carrier-only control cells, or cells expressing a dominant-negative TCF4 construct (dnTCF4), which acts to actively repress Wnt-TCF signalling.

[7] = test system: human glioblastoma cancer cell lines and cells from primary human glioblastoma tumors; test: BrdU incorporation proliferation assay in glioblastoma cells; assay type: cell-based; conditions: 48 h
[8] = test system: human primary colon cancer cells (CC14); test: BrdU incorporation proliferation assay in CC14 cells; assay type: cell-based; conditions: 48 h
Procedure: as §1
(§3) The same assay as described in Example 1 was carried out on human primary colon cancer cells (CC14 and CC36) (TNM IV and III, respectively) and primary metastatic cells (mCC11) from the liver of the patient where cell samples were treated with Abamectin (Sigma #31732) at three different concentrations: 0.1, 1 and 5 μM. Control cells were treated with equivalent concentrations of DMSO. 48 h after treatment the level of BrdU incorporation was calculated for cells treated with each macrocyclic lactone as compared to control cells as described above.
as §2, with “Control cells were treated with equivalent concentrations of DMSO. 48 h after treatment the level of BrdU incorporation was calculated for cells treated with each macrocyclic lactone as compared to control cells as described above. IC50 values are calculated by interpolation from a dose response curve fitted using PRISM (Graphpad Software).” left out

[9] = test system: human adenocarcinoma cell line SW180; test: BrdU incorporation proliferation assay in SW180 cells; assay type: cell-based; conditions: SW180, 0.5, 1, 2.5, 5 and 10 μM, 48 h
Procedure: as §1, with “Serum. […]” for “Serum.”

[10] = test system: primary metastatic cells (mCC11); test: BrdU incorporation proliferation assay in mCC11 cells; assay type: cell-based, human; conditions: 48 h
Procedure: as §1, §3
as §2, with “Control cells were treated with equivalent concentrations of DMSO. 48 h after treatment the level of BrdU incorporation was calculated for cells treated with each macrocyclic lactone as compared to control cells as described above. IC50 values are calculated by interpolation from a dose response curve fitted using PRISM (Graphpad Software).” left out

[11] = test system: Wnt pathway; test: Key Wnt target gene expression by quantitative real time PCR in LS174 cells; assay type: cell-based, human; conditions: 12 h after 5 μM Avermectin B1 (vs DMSO) or dnTCF4 expression (vs control plasmid)
Procedure: Key Wnt target gene expression was determined by quantitative real time PCR in LS174 colon adenocarcinoma cell line expressing a dominant negative TCF4 cDNA (dnTCF4) or 12 h after treatment with 5 μM Avermectin B1 (MicroSource Discovery systems, CT, USA). Control cell samples were treated with equivalent concentrations of DMSO. Cells were cultivated in standard conditions as described in Example 1.
Expression levels of individual genes are shown as a percentage compared to their expression levels in control cells treated with DMSO only in the case of Avermectin B1, or transfected with control plasmid in the case of dnTCF4, and are shown in Table 1 below: […]

CO[C@H]1C[C@H](O[C@H]2[C@H](C)O[C@@H](O[C@@H]3/C(C)=C/C[C@@H]4C[C@@H](C[C@]5(C=C[C@H](C)[C@@H](C6CCCCC6)O5)O4)OC(=O)[C@@H]4C=C(C)[C@@H](O)[C@H]5OC/C(=C\C=C\[C@@H]3C)[C@]54O)C[C@@H]2OC)O[C@@H](C)[C@@H]1O [Doramectin, 25-cyclohexyl-5-O-demethyl-25-de(1-methylpropyl)avermectin A1a]
proliferation (BrdU incorporation), dose-effect ([1]; LS174T, 0.1, 1 and 5 μM): decreases proliferation in a dose-dependent manner

Ivermectin
proliferation (BrdU incorporation), dose-effect ([1]; LS174T, 0.5, 1, 2.5, 5 and 10 μM): decreases proliferation in a dose-dependent manner
proliferation (BrdU incorporation), dose-effect ([2]; CC36, 0.5, 1, 2.5, 5 and 10 μM): decreases proliferation in a dose-dependent manner
proliferation (BrdU incorporation), dose-effect [3]: decreases proliferation in a dose-dependent manner
proliferation (BrdU incorporation), dose-effect [4]: decreases proliferation in a dose-dependent manner
proliferation (BrdU incorporation), dose-effect [5]: decreases proliferation in a dose-dependent manner
colon cancer xenograft growth [6]: able to inhibit colon cancer xenograft growth
proliferation (BrdU incorporation), dose-effect [7]: decreases proliferation in a dose-dependent manner
proliferation (BrdU incorporation), dose-effect ([8]; CC14, 0.5, 1, 2.5, 5 and 10 μM): decreases proliferation in a dose-dependent manner
proliferation (BrdU incorporation), dose-effect [9]: decreases proliferation in a dose-dependent manner
proliferation (BrdU incorporation), dose-effect ([10]; mCC11, 0.5, 1, 2.5, 5 and 10 μM): decreases proliferation in a dose-dependent manner

Abamectin
proliferation (BrdU incorporation), dose-effect ([1]; LS174T, 0.1, 1 and 5 μM): decreases proliferation in a dose-dependent manner
proliferation (BrdU incorporation), dose-effect ([2]; CC36, 0.1, 1 and 5 μM): decreases proliferation in a dose-dependent manner
proliferation (BrdU incorporation), dose-effect ([8]; CC14, 0.1, 1 and 5 μM): decreases proliferation in a dose-dependent manner
proliferation (BrdU incorporation), dose-effect ([10]; mCC11, 0.1, 1 and 5 μM): decreases proliferation in a dose-dependent manner

Avermectin B1
proliferation (percentage of BrdU incorporation compared to DMSO control) ([1]; LS174T, 5 μM): decreases to a minimum of half the proliferation
proliferation (percentage of BrdU incorporation compared to DMSO control) ([8]; CC14, 5 μM): decreases to a minimum of half the proliferation
AXIN2 expression level as percentage compared to control cells [11]: 62%
C-MYC expression level as percentage compared to control cells [11]: 35%
EPHB2 expression level as percentage compared to control cells [11]: 78%
EPHB3 expression level as percentage compared to control cells [11]: 55%
EPNB1 expression level as percentage compared to control cells [11]: 277%
LGR5 expression level as percentage compared to control cells [11]: 3%
P21 expression level as percentage compared to control cells [11]: 635%
proliferation (percentage of BrdU incorporation compared to DMSO control) ([10]; mCC11, 5 μM): decreases to a minimum of half the proliferation
